# Experimental data published in patent US12629375B2, “Compounds with anti-tumor activity against cancer cells bearing HER2 exon 21 insertions” (Board of Regents, The University of Texas System, priority 2019, dated 2026).
# Like-named read-outs stand apart in the source and are kept apart here.
# What was measured:
# [1] = test system: Ba/F3 cells stably expressing HER2 mutations (exons 19, 20, 21); experiment: Ba/F3 HER2 mutant cell viability (Cell Titer Glo) TKI screen; type: cell-based; conditions: for inhibitory activity for HER2 mutants across all three exons: exons 19, 20, 21; for inhibitory activity for HER2 mutants across all three exons / activity against cells expressing D769 variants / inhibiting cell viability in cells expressing exon 20 mutations: 72 hours; for sensitivity of HER2 mutants to inhibitor: all HER2 mutants, 72 hours drug treatment; for activity against cells expressing D769 variants: HER2 D769 variants; for inhibiting cell viability in cells expressing exon 20 mutations: HER2 exon 20 mutations
# Experimental: Briefly, stable Ba/F3 cell lines were generated by retroviral transduction of Ba/F3 cell line for 12 hours. […] Three days after transduction, 2 μg/ml puromycin (Invitrogen) was added to the RPMI media. After 5 days of selection, cells were stained with FITC-HER2 (Biolegend) sorted by FACS. Cell lines were then grown in the absence of IL-3 for two weeks and cell viability was assessed every three days using the Cell Titer Glo assay (Progema).
# (§1) Briefly, 2000-3000 cells per well were plated in 384-well plates (Greiner Bio-One) in technical triplicate. Cells were treated with seven different concentrations of tyrosine kinase inhibitors or vehicle alone at a final volume of 40 μL per well. After 3 days, 11μL of Cell Titer Glo was added to each well. Plates were shaken for 15 minutes, and bioluminescence was determined using a FLUOstar OPTIMA multi-mode micro-plate reader (BMG LABTECH). Bioluminescence values were normalized to DMSO treated cells, and normalized values were plotted in GraphPad Prism using non-linear regression fit to normalized data with a variable slope.
# [2] = test system: patients with HER2 mutant NSCLC; conditions: cited from earlier work
# [3] = test system: MCF10A HER2 mutant cell lines; experiment: MCF10A cell viability, HER2 exon 20 mutant cell lines together (average, selectivity vs HER2 WT, T-DM1 combination); type: cell-based, human
# Experimental: as §1
# Human Cell lines: MCF10A cells were purchased from ATCC and were cultured in DMEM/F12 media supplemented with 1% penicillin/streptomycin, 5% horse serum (sigma), 20 ng/ml EGF, […] hydrocortisone, and 10 μg/ml insulin. […] Two days after transduction, 0.5 μg/ml puromycin (Invitrogen) was added to the RPMI media. […] CW-2 cells were provided by the Riken cell line database under MTA, and were maintained in RPMI containing 10% FBS and 1% penicillin/streptomycin.
# [4] = test system: p-HER2; experiment: Western blot of p-HER2 in MCF10A HER2 G776delinsVC cells; type: cell-based, human; conditions: 10 nM, 2 hours treatment
# Experimental: Western Blotting: For Western blotting, cells were washed in PBS and lysed in RIPPA lysis buffer (ThermoFisher) and protease inhibitor cocktail tablets (Roche). Protein (30-40 μg) was loaded into gels purchased from BioRad. BioRad semi-dry transfer was used and then probed with antibodies against, pHER2, HER2, pPI3K, PI3K, p-AKT, AKT, p-ERK1/2, and ERK1/2 (1:1000; Cell Signaling). Blots were probed with antibodies against vinculin or β-actin (Sigma-Aldrich) as a loading control, and exposed using ECL Western Blotting substrate (Promega).
# [5] = test system: CW-2 large intestine cells harboring HER2 exon 19 mutation L755S; experiment: CW-2 cell viability; type: cell-based; conditions: Homo sapiens, CW-2, 72 h, read-out: average IC50
# Experimental: as §1, with “Cell Viability Assay and IC50 Estimation: Cell viability was determined using the Cell Titer Glo assay (Promega) as previously described (Robichaux et al., 2018). Briefly,” for “Briefly,”, “slope. IC50 values were calculated by GraphPad Prism at 50% inhibition.” for “slope.”
# Human Cell lines: MCF10A cells were purchased from ATCC and were cultured in DMEM/F12 media supplemented with 1% penicillin/streptomycin, 5% horse serum (sigma), 20 ng/ml EGF, […] hydrocortisone, and 10 μg/ml insulin. Stable cell lines were created by retroviral transduction, and retroviruses were generated by transfecting pBabe-Puro based vectors summarized in Table 1 (Addgene and Bioinnovatise) into Phoenix 293T-ampho cells (Orbigen) using Lipofectamine 2000 (Invitrogen). […]
# [6] = test system: CW-2 colorectal cell xenograft (HER2 L755S); experiment: CW-2 xenograft mouse model; type: in vivo, nu/nu nude mice; conditions: day 21, 30 mg/kg, 5 days/week
# Experimental: In vivo xenograft studies: CW-2 cell line xenografts were created by injecting 1×10^6 cells in 50% matrigel into 6 week old female nu/nu nude mice. When tumors reached 350 mm^3 mice were randomized into 4 groups: 20 mg/kg afatinib, 5 mg/kg poziotinib, 30 mg/kg neratinib, or vehicle control (0.5% Methylcellulose, 2% Tween-80 in dH2O). Tumor volumes were measured three times per week. Mice received drug Monday-Friday (5 days per week), but began dosing on Wednesday allowing for a 2 day holiday after the first 3 days of dosing.
# [7] = test system: patients with HER2 mutant cancers; conditions: cited from earlier work
# [8] = test system: HER2 Y772dupYVMA NSCLC PDX; experiment: HER2 Y772dupYVMA NSCLC PDX model; type: in vivo, NSG mice
# Experimental: Y772dupYVMA PDX mice were purchased from Jax Labs (Model #TM01446). Fragments from tumors expressing HER2 Y772dupYVMA were inoculated into 5- to 6-week old female NSG mice (Jax Labs #005557). Mice were measured three times per week, and when tumors reached a volume of 200-300 mm^3 mice were randomized into four treatment groups: vehicle control (0.5% Methylcellulose, 0.05% Tween-80 in dH2O), 2.5 mg/kg poziotinib, 10 mg/kg T-DM1, or combination of 2.5 mg/kg poziotinib and 10 mg/kg T-DM1. Tumor volumes and body weight were measured three times per week. Mice treated with 2.5 mg/kg poziotinib received drug orally Monday-Friday (5 days per week). Mice treated with 10 mg/kg T-DM1 received one intravenous (IV) dose of T-DM1 on the day of randomization. Mice treated with combination poziotinib and T-DM1 received one IV dose of T-DM1 and began 2.5 mg/kg poziotinib five days per week, 3 days after the dose of T-DM1. Mice received a holiday from dosing if the mouse dropped in body weight by greater than 10% or if body weight dropped below 20 grams. Progression free survival was defined as tumor doubling from best response for two consecutive measurements. Complete regression was defined as greater than 95% reduction in tumor burden, and for mice with complete regression, tumor doubling was defined greater than 75 mm^3 for more than two consecutive measurements. Experiments were completed in agreement with Good Animal Practices and with approval from MD Anderson Cancer Center Institutional Animal Care and Use Committee (Houston, TX).
# [9] = test system: patients with HER2 mutant NSCLC; conditions: cited from earlier work; remark: listed apart in the source
# [10] = lung cancer patients harboring HER2 exon 20 insertion mutations
compound,measurement,setting,value
COc1cc2ncnc(Nc3ccc(F)c(Cl)c3)c2cc1NC(=O)/C=C/CN1CCCCC1 [dacomitinib],inhibitory activity for HER2 mutants across all three exons,[1],had inhibitory activity
same,ORR,[2]; HER2 mutant NSCLC,11.5%
same,response rate,[2]; [10],11.5%
same,responses,[2]; patients bearing HER2 exon 20 insertion p.Y772dupYVMA,no responses
CS(=O)(=O)CCNCc1ccc(-c2ccc3ncnc(Nc4ccc(OCc5cccc(F)c5)c(Cl)c4)c3c2)o1 [lapatinib],sensitivity of HER2 mutants to inhibitor,[1],robust resistance
Cc1cc(C(=O)Nc2nc3cccc(Cl)c3n2[C@@H]2CCCCN(C(=O)/C=C/CN(C)C)C2)ccn1 [nazartinib],activity against cells expressing D769 variants,[1],did demonstrate activity
same,inhibiting cell viability in cells expressing exon 20 mutations,[1],not effective
CCOc1cc2ncc(C#N)c(Nc3ccc(OCc4ccccn4)c(Cl)c3)c2cc1NC(=O)/C=C/CN(C)C [neratinib],IC50 values in Ba/F3 drug screening,"[1]; HER2 L755S, V777L, or L869R mutations",low IC50 values
same,sensitivity of V842I mutation in the drug screen assays,[1]; HER2 V842I (exon 21),not sensitive
same,inhibitory activity for HER2 mutants across all three exons,[1],had inhibitory activity
same,IC50,"[3]; Homo sapiens, MCF-10A, average over MCF10A G776del insVC, Y772dupYVMA, G778dupGSP cells, 72 hours",150 nM
same,inhibition of p-HER2,[4],not
same,IC50,[5],68.8 nM
same,increased tumor volume compared to vehicle control,[6],28%
same,objective response rate (ORR),"[7]; SUMMIT pan-cancer study, all HER2 mutations",less than 15%
same,ORR,"[7]; SUMMIT, HER2 kinase domain point mutations",21.4%
same,ORR,"[7]; SUMMIT, exon 20 insertions",7.1%
same,response,"[7]; SUMMIT, patients with colorectal cancer",did not respond
same,response rate,[7]; [10],0%
same,ORR,"[7]; patients with breast cancer, single agent, multiple studies",12.5%-32%
same,response rate,"[7]; patients with lung cancer, single agent",0%-4%
C=CC(=O)Nc1cc(Nc2nccc(-c3cn(C)c4ccccc34)n2)c(OC)cc1N(C)CCN(C)C [osimertinib],activity against cells expressing D769 variants,[1],did demonstrate activity
same,inhibiting cell viability in cells expressing exon 20 mutations,[1],not effective
CCOc1cc2ncc(C#N)c(Nc3ccc(OCc4ccccn4)c(Cl)c3)c2cc1NC(=O)/C=C/[C@H]1CCCN1C [pyrotinib],"selectivity index (SI, IC50 value mutant/IC50 value WT)",[3]; MCF10A HER2 mutant vs HER2 WT cell lines,0.063
CNC(=O)CN1CCC(Oc2cc3c(Nc4cccc(Cl)c4F)ncnc3cc2OC)CC1 [sapatinib],sensitivity of HER2 mutants to inhibitor,[1],robust resistance
T-DM1,inhibition of cell viability of MCF10A HER2 mutant cell lines,[3]; agent alone,did not inhibit cell viability
same,tumor growth after best response,[8]; by day 30,tumor growth resumed in all mice
same,mice with complete tumor regression,"[8]; day 15 (best response), poziotinib 2.5 mg/kg, T-DM1 10 mg/kg single dose",2/9
same,"median PFS (mPFS), time to tumor doubling from best response","[8]; poziotinib 2.5 mg/kg 5 days per week, T-DM1 10 mg/kg single IV dose",27 days
same,ORR,[9]; patients harboring exon 20 insertion mutations,54.5%
same,partial responses,[9]; patients with exon 19 mutations,did not have partial responses
